A short description of series [1]: Brain concentration of compound A by LCMS. The class given is in vivo. Conditions: C57BL6, mouse, oral, 30 mg/kg, mice, read-out: brain t1/2 (converted). The procedure:
C57BL6 mice were treated by oral gavage of 30 mg/kg compound A (0.5% methylcellulose carrier) once a day for 4 consecutive days. After the final dose, nine groups of animals (5 animals per group) were sacrificed at different time points ranging from 15 min. post final dose up to 48 hours post final dose (plus an untreated group). Blood was collected and mouse brain samples were minced and homogenized in water using a FastPrep homogenizer (Thermo Scientific). Plasma and brain homogenates were extracted with acetonitrile for measurement of compound A concentrations by LCMS. For biochemical analysis, brains were homogenized (250 mM sucrose, 50 mM Tris, pH 7.5, 1 mM EDTA plus protease inhibitors) and separated into a membrane fraction and soluble fraction by ultracentrifugation at 100,000 g for 1 hr. […] Total protein was measured by BCA (Pierce) and 30 ug of each sample was separated by SDS/PAGE and analyzed by Western blot. […] Chemiluminescence data was imaged using an Alpha Innotech FluorChem Q imager and band quantification was carried out using densitometry software AlphaViewQ (Alpha Innotech). […] Abeta40 was quantified from diethylamine extracts using BetaMark Abeta40 ELISA kit (Covance); Abeta42 was quantified from diethylamine extracts using the High Sensitivity Abeta42 ELISA kit (Wako).

Series [2] relates to γ-secretase. As to the kind of experiment: In vivo brain α-CTF, Aβ40 and Aβ42 levels in mice after compound A. More on the design: species or system C57BL6 mice. The procedure: (§1) Mice were treated via gavage once daily for […] with 30 mg/Kg of compound A and then necropsied 0-48 hours after the final dose was administered.
(§2) C57BL6 mice were treated by oral gavage of 30 mg/kg compound A (0.5% methylcellulose carrier) once a day for 4 consecutive days. After the final dose, nine groups of animals (5 animals per group) were sacrificed at different time points ranging from 15 min. post final dose up to 48 hours post final dose (plus an untreated group). Blood was collected and mouse brain samples were minced and homogenized in water using a FastPrep homogenizer (Thermo Scientific). Plasma and brain homogenates were extracted with acetonitrile for measurement of compound A concentrations by LCMS. For biochemical analysis, brains were homogenized (250 mM sucrose, 50 mM Tris, pH 7.5, 1 mM EDTA plus protease inhibitors) and separated into a membrane fraction and soluble fraction by ultracentrifugation at 100,000 g for 1 hr. The membrane fraction was solubilized in RIPA buffer (1% TX100, 0.5% Taurodexoycholate, 0.1% SDS in TBS+PI) and clarified by centrifugation. Total protein was measured by BCA (Pierce) and 30 ug of each sample was separated by SDS/PAGE and analyzed by Western blot. The following antibodies were used: PS1 ( 1/1000 Abcam no. Ab10281); calnexin ( 1/1000 Abcam no. Ab10286) and APP-CTF ( 1/1000 Anaspec 54096). Western blots were developed using an alkaline phosphatase anti-rabbit secondary and an alkaline phosphatase chemiluminescent substrate. Chemiluminescence data was imaged using an Alpha Innotech FluorChem Q imager and band quantification was carried out using densitometry software AlphaViewQ (Alpha Innotech). […] Abeta40 was quantified from diethylamine extracts using BetaMark Abeta40 ELISA kit (Covance); Abeta42 was quantified from diethylamine extracts using the High Sensitivity Abeta42 ELISA kit (Wako).

Series [3] has as its target T1, presenilin 1 (Mus musculus, UniProt P49769).
T1 construct: brain levels of mature PS1 remain elevated for well after compound A and α-CTFs have returned to baseline levels; The mature form of presenlin is a heterodimer consisting of a ˜30 kDa NH2-terminal fragment (NTF) and a ˜20 kDa C-terminal fragment; from tissue; host or cells: brain membrane fraction of C57BL6 mice
The experiment in a line: In vivo brain PS1 levels in mice after compound A, western blot. The note with it: 30 mg/kg oral once daily 4 days. More on the design: species or system C57BL6 mice. As for the experimental part: as §1, §2
(In general: In western blotting, separated proteins are transferred to a membrane and probed.)

Series [4] concerns the target γ-secretase (Homo sapiens, UniProt P49768). As to the kind of experiment: γ-secretase inhibitory IC50 of compound A. The note with it: γ-secretase inhibition, compared with brain levels.

For orientation: IC50 means the midpoint of a concentration-inhibition curve. A low value points to higher potency. Regarding `C[C@H](OC(=O)NCC(F)(F)C(F)(F)F)C(=O)N[C@@H]1C(=O)N(C)c2ccccc2-c2ccccc21` [Compound A, (S)-1-(((S)-5-methyl-6-oxo-6,7-dihydro-5H-dibenzo[b,d]azepin-7-yl)amino)-1-oxopropan-2-yl (2,2,3,3,3-pentafluoropropyl)carbamate], in series [1], the half-life is approximately 3.5 h. For the same compound, the “reduction of brain Aβ42 levels relative to untreated controls” value in series [2] (30 mg/kg oral once daily 4 days, 48 hrs after the final dose) worked out at 40%. Moreover, the “Aβ42/Aβ40 ratio in brain” value in series [2] (30 mg/kg oral once daily 4 days, washout) is “reduced”. The “time after final dose at which CTF levels begin to drop” value in series [2] (30 mg/kg oral, brain α-CTFs) came out at 2 h. The “brain presenilin levels above untreated levels” value in series [3] (at 24 hours) is on record as 50%. For the same compound, the “increase of brain presenilin levels” value in series [3] (within 1 hour of washout) turned out to be 50%. Moreover, the “maximum increase of brain presenilin levels” value in series [3] (within 8 hours of washout) was determined as 2 fold. The compound further showed an IC50 in series [4] of approximately 60 nM.

These data come from patent US20130102538A1, “METHOD OF TREATING ALZHEIMER'S DISEASE USING PHARMACOLOGICAL CHAPERONES TO INCREASE PRESENILIN FUNCTION AND GAMMA-SECRETASE ACTIVITY” (AMICUS THERAPEUTICS, INC., priority 2010, published 2013).
